In general, IC50 refers to the concentration at which inhibition is half-maximal.

Counter-ions that a name gives are not always drawn.

Holding throughout (assay type): biochemical
In assay [1] the target is T1, recombinant human MAO-A (monoamine oxidase-A) (Homo sapiens, UniProt P21397).
T1 construct: purchased Sigma-Aldrich
T1 sequence (P21397 1-527): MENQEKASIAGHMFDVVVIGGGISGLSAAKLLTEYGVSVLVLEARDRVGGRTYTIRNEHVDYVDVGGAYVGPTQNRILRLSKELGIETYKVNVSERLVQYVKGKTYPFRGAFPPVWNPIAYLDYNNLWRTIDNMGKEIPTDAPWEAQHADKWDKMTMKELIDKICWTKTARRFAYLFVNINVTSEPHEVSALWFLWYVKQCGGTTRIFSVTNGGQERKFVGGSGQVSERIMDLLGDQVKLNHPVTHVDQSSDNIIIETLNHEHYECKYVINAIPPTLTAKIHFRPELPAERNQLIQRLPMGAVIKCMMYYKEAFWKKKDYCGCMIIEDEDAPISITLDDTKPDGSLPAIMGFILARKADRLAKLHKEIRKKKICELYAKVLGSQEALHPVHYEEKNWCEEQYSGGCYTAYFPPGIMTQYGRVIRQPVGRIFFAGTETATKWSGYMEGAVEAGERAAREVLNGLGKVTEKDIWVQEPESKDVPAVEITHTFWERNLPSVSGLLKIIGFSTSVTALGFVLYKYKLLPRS
Description: Activity on recombinant human MAO-A, method similar to the VAP-1 assay. The settings on record: substrate 0.5 mM tyramine; read-out: Inhibitory Activity (IC50, nM) MAO-A. Summed up:
(§1)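 8-point, 1:3 dose-response, four-parameter logistic IC50 from reduction in fluorescence rate versus DMSO control. HRP/Amplex Red detection of H2O2 (ex 544, em 590 nm) after 30 min, 37 °C compound–enzyme preincubation in pH 7.4 phosphate buffer. MAO-A substrate: 0.5 mM tyramine; MAO-B: 1 mM benzylamine.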

Assay [2] deals with T2, recombinant human MAO-B (monoamine oxidase-B) (Homo sapiens, UniProt P27338).
T2 construct: purchased Sigma-Aldrich
T2 sequence (P27338 1-520): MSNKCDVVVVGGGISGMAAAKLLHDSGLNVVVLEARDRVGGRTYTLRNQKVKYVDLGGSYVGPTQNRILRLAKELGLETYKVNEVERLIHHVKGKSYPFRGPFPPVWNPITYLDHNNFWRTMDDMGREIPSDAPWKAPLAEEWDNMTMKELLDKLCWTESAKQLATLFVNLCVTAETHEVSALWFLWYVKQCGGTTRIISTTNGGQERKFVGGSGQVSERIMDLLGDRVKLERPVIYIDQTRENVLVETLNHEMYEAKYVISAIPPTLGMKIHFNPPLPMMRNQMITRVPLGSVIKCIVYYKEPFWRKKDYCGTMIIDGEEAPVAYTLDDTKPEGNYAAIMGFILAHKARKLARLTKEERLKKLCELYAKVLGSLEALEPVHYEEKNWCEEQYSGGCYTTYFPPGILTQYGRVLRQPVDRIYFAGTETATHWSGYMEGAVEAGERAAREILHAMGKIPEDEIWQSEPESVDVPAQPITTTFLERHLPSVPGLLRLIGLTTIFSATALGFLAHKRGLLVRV
Description: Activity on recombinant human MAO-B, method similar to the VAP-1 assay. As to conditions: substrate 1 mM benzylamine; read-out: Inhibitory Activity (IC50, nM) MAO-B. Summed up: as §1

Another assay addresses T3, recombinant human VAP-1 (Homo sapiens, UniProt Q16853).
T3 construct: purchased R&D systems
T3 sequence (Q16853 1-763): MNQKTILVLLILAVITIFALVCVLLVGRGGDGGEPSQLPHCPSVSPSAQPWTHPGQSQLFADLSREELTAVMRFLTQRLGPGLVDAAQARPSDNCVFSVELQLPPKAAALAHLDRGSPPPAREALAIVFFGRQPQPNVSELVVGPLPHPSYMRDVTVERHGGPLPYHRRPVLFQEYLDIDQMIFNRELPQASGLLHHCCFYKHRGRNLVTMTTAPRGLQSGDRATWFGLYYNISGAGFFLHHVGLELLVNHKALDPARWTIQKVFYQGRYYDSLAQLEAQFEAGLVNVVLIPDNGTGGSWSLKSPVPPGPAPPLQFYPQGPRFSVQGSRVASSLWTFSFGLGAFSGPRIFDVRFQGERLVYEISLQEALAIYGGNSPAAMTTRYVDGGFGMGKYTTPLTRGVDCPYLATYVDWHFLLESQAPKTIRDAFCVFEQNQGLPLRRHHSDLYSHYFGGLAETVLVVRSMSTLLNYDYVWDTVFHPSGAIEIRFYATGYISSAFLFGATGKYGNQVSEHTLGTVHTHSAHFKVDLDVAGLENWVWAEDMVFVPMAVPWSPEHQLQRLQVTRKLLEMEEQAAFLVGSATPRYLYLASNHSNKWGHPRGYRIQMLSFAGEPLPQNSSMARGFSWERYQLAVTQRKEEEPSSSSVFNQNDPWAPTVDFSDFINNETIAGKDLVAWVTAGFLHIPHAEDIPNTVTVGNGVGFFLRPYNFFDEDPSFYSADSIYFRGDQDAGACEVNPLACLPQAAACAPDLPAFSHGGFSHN
Description: Activity on recombinant human VAP-1, HRP-coupled Amplex Red hydrogen peroxide assay. As to conditions: substrate 1 mM benzylamine; compound incubated with enzyme at 37° C. for 30 minutes; pH 7.4; read-out: Inhibitory Activity (IC50, nM) human VAP-1. Summed up: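 Compounds were preincubated with purified enzyme in 50 mM sodium phosphate pH 7.4 at 37 °C for 30 min, then 200 uM Amplex Red, 1 mM benzylamine and 1 U/mL HRP were added. Resorufin fluorescence (ex 544/em 590 nm) was followed over 1-2 h; IC50 came from 4-parameter fits of signal-rate inhibition.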

Assay [3] concerns the target T4, recombinant human DAO (diamine oxidase) (Homo sapiens, UniProt P19801).
T4 construct: purchased R&D systems
T4 sequence (P19801 20-751): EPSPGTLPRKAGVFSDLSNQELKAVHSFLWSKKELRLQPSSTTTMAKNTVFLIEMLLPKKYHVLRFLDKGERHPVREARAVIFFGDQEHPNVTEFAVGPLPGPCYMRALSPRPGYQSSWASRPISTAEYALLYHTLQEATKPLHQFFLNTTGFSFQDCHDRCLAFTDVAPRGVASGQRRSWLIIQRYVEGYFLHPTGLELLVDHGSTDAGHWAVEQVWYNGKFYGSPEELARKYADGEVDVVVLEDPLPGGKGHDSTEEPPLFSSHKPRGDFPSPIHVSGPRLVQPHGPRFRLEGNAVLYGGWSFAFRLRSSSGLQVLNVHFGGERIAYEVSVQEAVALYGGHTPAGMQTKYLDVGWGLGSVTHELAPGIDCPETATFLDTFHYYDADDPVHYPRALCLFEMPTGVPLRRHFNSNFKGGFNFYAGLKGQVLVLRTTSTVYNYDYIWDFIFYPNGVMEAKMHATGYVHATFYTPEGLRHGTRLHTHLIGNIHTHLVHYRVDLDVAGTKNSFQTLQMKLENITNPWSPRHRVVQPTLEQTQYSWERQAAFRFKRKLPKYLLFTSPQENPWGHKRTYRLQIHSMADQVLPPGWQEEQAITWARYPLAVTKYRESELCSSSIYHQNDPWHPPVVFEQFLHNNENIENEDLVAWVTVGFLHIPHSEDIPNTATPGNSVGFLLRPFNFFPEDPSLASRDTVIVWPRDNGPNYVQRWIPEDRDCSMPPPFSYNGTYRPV
Description: Activity on recombinant human DAO, method similar to the VAP-1 assay. The settings on record: substrate 1 mM putrescine; read-out: Inhibitory Activity (IC50, nM) DAO. Summed up:
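Inhibition of recombinant human diamine oxidase (DAO, R&D systems) was assessed by the same approach as the VAP-1 assay, using 1 mM putrescine as substrate. Hydrogen peroxide formed was detected through an HRP-coupled Amplex Red reaction yielding fluorescent resorufin, read at 544 nm excitation and 590 nm emission. IC50 values came from four-parameter logistic fitting in GraphPad Prism.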

With `Cc1cc(-c2ccc(CCn3cnn(C/C(=C/F)CN)c3=O)s2)cc2c1NC(=O)CC2` [Example 218, 6-[5-(2-{1-[(2E)-2-(aminomethyl)-3-fluoroprop-2-en-1-yl]-5-oxo-1,5-dihydro-4H-1,2,4-triazol-4-yl}ethyl)thiophen-2-yl]-8-methyl-3,4-dihydroquinolin-2(1H)-one], the IC50 in assay [1] is greater than 100000 nM; in assay [2] it was 76000 nM; on recombinant human VAP-1 it was 0.7 nM; in assay [3], 200 nM.
On to `CN(C)c1ccc(C#Cc2ccc(Cn3cnn(C/C(=C/F)CN)c3=O)s2)cn1` [Example 128, 2-[(E)-2-(aminomethyl)-3-fluoro-allyl]-4-[[5-[2-[6-(dimethylamino)-3-pyridyl]ethynyl]-2-thienyl]methyl]-1,2,4-triazol-3-one], for which the half-inhibitory concentration (IC50) amounted to 30000 nM in assay [1], 490 nM in assay [2], 0.7 nM at recombinant human VAP-1 and 9800 nM in assay [3].
Consider `Cn1nccc1-c1ccc(Cn2cnn(C/C(=C/F)CN)c2=O)s1` [Example 156, 2-[(2E)-2-(aminomethyl)-3-fluoroprop-2-en-1-yl]-4-{[5-(1-methyl-1H-pyrazol-5-yl)thiophen-2-yl]methyl}-2,4-dihydro-3H-1,2,4-triazol-3-one], for which the half-inhibitory concentration (IC50) in assay [1] is greater than 100000 nM; in assay [2] it was 28 nM; at recombinant human VAP-1 it was 4.2 nM; in assay [3] it was 1300 nM.
As to `NC/C(=C\F)Cn1ncn(Cc2ccc(-c3c[nH]c4ncccc34)s2)c1=O` [Example 115, 2-[(2E)-2-(aminomethyl)-3-fluoroprop-2-en-1-yl]-4-[5-(1H-pyrrolo[2,3-b]pyridin-3-yl)thiophen-2-yl]methyl-2,4-dihydro-3H-1,2,4-triazol-3-one hydrochloride], the half-maximal inhibitory concentration (IC50) was greater than 100000 nM in assay [1], 120 nM in assay [2], 0.7 nM at recombinant human VAP-1 and 860 nM in assay [3].
As to `COC(=O)c1cccc(-c2ccc(Cn3cnn(C/C(=C/F)CN)c3=O)s2)c1` [Example 11, methyl 3-[5-(1-[(2E)-2-(aminomethyl)-3-fluoroprop-2-en-1-yl]-5-oxo-1,5-dihydro-4H-1,2,4-triazol-4-ylmethyl)thiophen-2-yl]benzoate hydrochloride], the IC50 is greater than 100000 nM in assay [1], 35 nM in assay [2], 1.8 nM on recombinant human VAP-1 and 1100 nM in assay [3].
In the same order, the values of `NC/C(=C\F)Cn1ncn(Cc2ccc(-c3ccc(-c4nnc[nH]4)cc3)s2)c1=O` [Example 31, 2-[(2E)-2-(aminomethyl)-3-fluoroprop-2-en-1-yl]-4-(5-[4-(4H-1,2,4-triazol-3-yl)phenyl]thiophen-2-ylmethyl)-2,4-dihydro-3H-1,2,4-triazol-3-one] are greater than 100000 nM, 73 nM, 0.67 nM and 120 nM.
As to `NC/C(=C\F)Cn1ncn(Cc2ccc(-c3ccc4c(c3)NC(=O)CO4)s2)c1=O` [Example 90, 6-[5-(1-[(2E)-2-(aminomethyl)-3-fluoroprop-2-en-1-yl]-5-oxo-1,5-dihydro-4H-1,2,4-triazol-4-ylmethyl)thiophen-2-yl]-2H-1,4-benzoxazin-3(4H)-one hydrochloride], the IC50 amounted to 24000 nM in assay [1], 660 nM in assay [2], 0.4 nM on recombinant human VAP-1 and 230 nM in assay [3].
As to `COc1ccc(-c2ccc(Cn3cnn(C/C(=C/F)CN)c3=O)s2)cc1OC` [Example 16, 2-[(2E)-2-(aminomethyl)-3-fluoroprop-2-en-1-yl]-4-[5-(3,4-dimethoxyphenyl)thiophen-2-yl]methyl-2,4-dihydro-3H-1,2,4-triazol-3-one hydrochloride], the 50% inhibitory concentration (IC50) in assay [1] was greater than 100000 nM; in assay [2], 300 nM; on recombinant human VAP-1, 1.2 nM; in assay [3], 2800 nM.
In the case of `NC/C(=C\F)Cn1ncn(CCc2ccc(-c3ccc(C(F)(F)F)nc3)s2)c1=O` [Example 217, 2-[(2E)-2-(aminomethyl)-3-fluoroprop-2-en-1-yl]-4-(2-{5-[6-(trifluoromethyl)pyridin-3-yl]thiophen-2-yl}ethyl)-2,4-dihydro-3H-1,2,4-triazol-3-one], the half-maximal inhibitory concentration (IC50) in assay [1] was greater than 100000 nM; in assay [2], 6900 nM; at recombinant human VAP-1, 0.7 nM; in assay [3] it was 61 nM.
Turning to `Cc1cc(-c2ccc(Cn3cnn(C/C(=C/F)CN)c3=O)s2)n(C)n1` [Example 158, 2-[(2E)-2-(aminomethyl)-3-fluoroprop-2-en-1-yl]-4-{[5-(1,3-dimethyl-1H-pyrazol-5-yl)thiophen-2-yl]methyl}-2,4-dihydro-3H-1,2,4-triazol-3-one], the IC50 in assay [1] was greater than 100000 nM; in assay [2], 430 nM; at recombinant human VAP-1 it was 1.9 nM; in assay [3] it was 340 nM.

For the origin of these results see patent US11780830B2, “Triazolone derivatives or salts thereof and pharmaceutical compositions comprising the same” (YUHAN CORPORATION, priority 2018, dated 2023).
